Data: patent US10870638B2, “Pyridazinone compound or its salt, and herbicide containing it” (ISHIHARA SANGYO KAISHA, LTD., priority 2016, dated 2020)

Columns and labels:
Assay in all cases: Test Example 1: foliar treatment, growth inhibition rate on 14th day
Type in all cases: in vivo
Conditions in all cases: active ingredient amount 31 g/ha, 14th day after application
corn (Zea mays L.) = test system: corn (Zea mays L.)
Excerpt: (§1) Upland field soil was put into a 1/300,000 hectare pot, and seeds of various plants were sown. When the respective plants reached predetermined leaf stage ((1) barnyardgrass (Echinochloa crus-[…].): 0.5 to 2.9 leaf stage, (2) crabgrass (Digitaria sanquinalis L.): 0.5 to 3.0 leaf stage, (3) green foxtail (Setaria viridis L.): 0.5 to 3.2 leaf stage, (4) wild oat (Avena fatua L.): 0.4 to 1.2 leaf stage, (5) italian ryegrass (Lolium multiflorum Lam.): 0.4 to 2.0 leaf stage, (6) redroot pigweed (Amaranthus retroflexus L.): cotyledon stage to 2.2 leaf stage, (7) rice (Oryza sativa L.): 0.2 to 2.7 leaf stage, (8) corn (Zea mays L.): 1.7 to 3.6 leaf stage, (9) wheat (Triticum aestivum L.): 1.3 to 2.3 leaf stage, (10) soybean (Glycine max Merr.); primary leaf stage), wettable powders or emulsifiable concentrates of the compounds of the present invention prepared in accordance with a conventional preparation method, were weighed so as to achieve the prescribed active ingredient amounts, and diluted with water in an amount corresponding to 1,000 liters per 1 hectare (containing 0.1 vol % of an agricultural spreader (surfactant WK manufactured by MARUWA BIOCHEMICAL Co., Ltd.)), and the spray solutions thus prepared were applied for foliar treatment by a small sprayer. On the 14th day after the application, the state of growth of the respective plants was visually observed, and the herbicidal effect was evaluated by a growth inhibition rate (%) of 0 (equivalent to the non-treated area) to 100 (complete kill).

[1] = test system: green foxtail (Setaria viridis L.)
Excerpt: as §1

[2] = test system: redroot pigweed (Amaranthus retroflexus L.)
Excerpt: as §1

[3] = test system: barnyardgrass (Echinochloa crus-qalli L.)
Excerpt: as §1

[4] = test system: italian ryegrass (Lolium multiflorum Lam.)
Excerpt: as §1

[5] = test system: wild oat (Avena fatua L.)
Excerpt: as §1

[6] = test system: soybean (Glycine max Merr.)
Excerpt: as §1

rice (Oryza sativa L.) = test system: rice (Oryza sativa L.)
Excerpt: as §1

[7] = test system: wheat (Triticum aestivum L.)
Excerpt: as §1

[8] = test system: crabgrass (Digitaria sanquinalis L.)
Excerpt: as §1

[9] = visual, 0 = non-treated, 100 = complete kill

Structure (SMILES)	Growth inhibition rate (%) Corn (corn (Zea mays L.)) [%]	Growth inhibition rate (%) Green foxtail [1] [%]	Growth inhibition rate (%) Redroot pigweed [2] [%]	Growth inhibition rate (%) Barnyardgrass [3] [%]	Growth inhibition rate (%) Italian ryegrass [4] [%]	Growth inhibition rate (%) Wild oat [5] [%]	Growth inhibition rate (%) Soybean [6] [%]	Growth inhibition rate (%) Rice (rice (Oryza sativa L.)) [%]	Growth inhibition rate (%) Wheat [7] [%]	Growth inhibition rate (%) Crabgrass [8] [%]	Growth inhibition rate (%) Corn (corn (Zea mays L.); [9]) [%]	Growth inhibition rate (%) Green foxtail [1, 9] [%]	Growth inhibition rate (%) Redroot pigweed [2, 9] [%]	Growth inhibition rate (%) Barnyardgrass [3, 9] [%]	Growth inhibition rate (%) Italian ryegrass [4, 9] [%]	Growth inhibition rate (%) Wild oat [5, 9] [%]	Growth inhibition rate (%) Soybean [6, 9] [%]	Growth inhibition rate (%) Rice (rice (Oryza sativa L.); [9]) [%]	Growth inhibition rate (%) Wheat [7, 9] [%]	Growth inhibition rate (%) Crabgrass [8, 9] [%]
Cc1ccc(Oc2cnc3cc(Cl)ccc3n2)cc1-c1c(OC(=O)N2CCOCC2)c(C)nn(C)c1=O [Compound 3-39]	15	95	0	88	0	0	0	0	0	0	–	–	–	–	–	–	–	–	–	–
Cc1ccc(Oc2nc3cc(F)ccc3o2)cc1-c1c(O)cnn(C)c1=O [Compound 2-184]	40	99	0	95	35	30	30	60	10	95	–	–	–	–	–	–	–	–	–	–
Cc1ccc(Oc2ncc(C(F)(F)F)cc2Cl)c(C)c1-c1c(O)c(C)nn(C)c1=O [1-13]	88	100	0	100	70	75	0	40	20	95	–	–	–	–	–	–	–	–	–	–
COCCOCOc1c(C)nn(C)c(=O)c1-c1cc(Oc2cnc3cc(Cl)ccc3n2)ccc1C [Compound 3-75]	–	–	–	–	–	–	–	–	–	–	10	99	0	99	98	98	0	0	95	95
CC(=O)Oc1c(C)nn(C)c(=O)c1-c1cc(Oc2ncc(Cl)cc2Cl)ccc1C [Compound 2-128]	75	75	0	85	93	88	0	45	60	83	–	–	–	–	–	–	–	–	–	–
CCCCC(=O)Oc1c(C)nn(C)c(=O)c1-c1cc(Oc2cnc3cc(Cl)ccc3n2)ccc1C [Compound 3-36]	40	99	0	100	99	99	40	90	99	99	–	–	–	–	–	–	–	–	–	–
CC(=O)Oc1c(C)nn(C)c(=O)c1-c1cc(N(C)c2ncc(C(F)(F)F)cc2Cl)ccc1C [1-145]	40	70	0	93	20	40	35	0	50	90	–	–	–	–	–	–	–	–	–	–
CCc1nn(C)c(=O)c(-c2cc(Oc3ncc(C(F)(F)F)cc3Cl)ccc2C)c1OCOC [1-138]	83	60	0	100	70	90	30	0	83	85	–	–	–	–	–	–	–	–	–	–
CC(=O)Cn1ncc(O)c(-c2cc(Oc3ncc(C(F)(F)F)cc3Cl)ccc2C)c1=O [1-169]	98	99	20	90	90	90	0	10	0	95	–	–	–	–	–	–	–	–	–	–
Cc1ccc(Oc2cnc3cc(Cl)ccc3n2)cc1-c1c(OC(=O)N(C)C)c(C)nn(C)c1=O [Compound 3-65]	–	–	–	–	–	–	–	–	–	–	40	99	0	100	85	75	10	0	98	83
Cc1ccc(Oc2cnc3cc(Cl)ccc3n2)cc1-c1c(OC(=O)OC(C)C)c(C)nn(C)c1=O [Compound 3-60]	–	–	–	–	–	–	–	–	–	–	20	100	0	99	95	98	10	10	93	95
Cc1ccc(Oc2cnc3cc(Cl)ccc3n2)cc1-c1c(OC(=O)C(C)(C)C)c(C)nn(C)c1=O [Compound 3-42]	30	98	10	100	95	100	0	60	20	20	–	–	–	–	–	–	–	–	–	–
C=CCOc1c(C)nn(C)c(=O)c1-c1cc(Oc2cnc3cc(Cl)ccc3n2)ccc1C [Compound 3-74]	–	–	–	–	–	–	–	–	–	–	20	95	0	93	0	25	0	0	0	20
Cc1ccc(Oc2cnc3cc(Cl)ccc3n2)cc1-c1c(OC(=O)c2ccccc2)c(C)nn(C)c1=O [Compound 3-38]	30	100	20	100	99	98	25	80	98	100	–	–	–	–	–	–	–	–	–	–
CCc1nn(C)c(=O)c(-c2cc(Oc3nc4ccc(Cl)cc4o3)ccc2C)c1OC(C)=O [Compound 2-122]	85	95	0	100	75	60	40	0	60	90	–	–	–	–	–	–	–	–	–	–
CC(=O)Oc1c(C)nn(C)c(=O)c1-c1cc(Oc2nc3ccc(Cl)cc3s2)ccc1C [Compound 2-132]	0	80	–	90	78	90	30	40	70	50	–	–	–	–	–	–	–	–	–	–
